“And” between values parts separate entries of the source, which are not always exact repeats. Equal entries are not always repeated. Where two headings read alike, the source gives them in different places.
Legend:
[1] = target: T1, Paenibacillus sp. JJ-1b PraI (para-hydroxybenzoate-3-hydroxylase, PHBH), BAH79107, tagless, praI_EC gene SEQ ID NO: 3 (Paenibacillus sp., UniProt C4TP09); assay: Steady-state kinetic analysis of PraI (hydroxylation of 4-hydroxybenzoate); format: biochemical; settings: for kcat (NAD(P)H): air-saturated, 200 μM 4-hydroxybenzoate, pH 8, 25° C.
T1 construct: His-tagged form only for crystallography
T1 sequence (C4TP09 2-394): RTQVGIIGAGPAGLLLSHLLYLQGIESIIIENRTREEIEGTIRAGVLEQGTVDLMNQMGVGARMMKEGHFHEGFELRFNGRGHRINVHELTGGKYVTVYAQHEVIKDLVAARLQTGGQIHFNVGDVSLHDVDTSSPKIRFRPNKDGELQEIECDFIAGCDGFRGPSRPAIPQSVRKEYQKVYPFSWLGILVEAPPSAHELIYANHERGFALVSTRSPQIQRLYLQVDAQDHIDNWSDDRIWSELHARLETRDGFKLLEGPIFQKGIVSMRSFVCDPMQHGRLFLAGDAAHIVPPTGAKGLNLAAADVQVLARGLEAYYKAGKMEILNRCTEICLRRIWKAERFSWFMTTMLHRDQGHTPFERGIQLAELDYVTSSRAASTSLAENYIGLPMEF

[2] = target: Pseudomonas putida KT2440 PobA (para-hydroxybenzoate-3-hydroxylase, PHBH), native, PP_3537, tagless, pobA_EC gene SEQ ID NO: 1 (Pseudomonas putida, UniProt Q88H28); assay: Steady-state kinetic analysis of PobA (hydroxylation of 4-hydroxybenzoate); format: biochemical; settings: for kcat (NAD(P)H): NADPH varied, air-saturated, 200 μM 4-hydroxybenzoate, pH 8, 25° C.
Pseudomonas putida KT2440 PobA (para-hydroxybenzoate-3-hydroxylase, PHBH), native, PP_3537, tagless, pobA_EC gene SEQ ID NO: 1, sequence (Q88H28 1-395): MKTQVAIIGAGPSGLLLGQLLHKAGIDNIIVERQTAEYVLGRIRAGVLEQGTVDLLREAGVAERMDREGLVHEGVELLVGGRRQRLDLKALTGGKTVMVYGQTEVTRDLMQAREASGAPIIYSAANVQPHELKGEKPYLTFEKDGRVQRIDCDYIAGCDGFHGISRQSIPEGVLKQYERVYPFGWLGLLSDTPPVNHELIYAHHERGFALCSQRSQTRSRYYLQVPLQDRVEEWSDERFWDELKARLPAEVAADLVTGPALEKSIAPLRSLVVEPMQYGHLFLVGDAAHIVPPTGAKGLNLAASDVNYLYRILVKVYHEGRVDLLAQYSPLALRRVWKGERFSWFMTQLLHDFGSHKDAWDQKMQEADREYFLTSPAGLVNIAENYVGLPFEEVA

[3] = tested on: Pseudomonas aeruginosa PHBH (para-hydroxybenzoate-3-hydroxylase); settings: reported value, natively produced PHBH, cited from earlier work
[4] = tested on: Pseudomonas fluorescens PHBH (para-hydroxybenzoate-3-hydroxylase); settings: read-out: KM^NADPH; reported value, natively produced PHBH; cited from earlier work

O=O [O2, molecular oxygen]
kcat (O2) ([1]; pH 8): 25 ± 2 s⁻¹ and 22 ± 2 s⁻¹ | Km ([1]; pH 8, read-out: KM (O2)): 68 µM and 54 µM | kcat (O2) ([2]; pH 8): 53 ± 5 s⁻¹ | Km ([2]; pH 8, read-out: KM (O2)): 70 ± 5 µM | Km ([3]; read-out: KM^oxygen): 37 µM

NC(=O)C1=CN([C@@H]2O[C@H](COP(=O)(O)OP(=O)(O)OC[C@H]3O[C@@H](n4cnc5c(N)ncnc54)[C@H](OP(=O)(O)O)[C@@H]3O)[C@@H](O)[C@H]2O)C=CC1 [NADPH]
kcat (NAD(P)H) ([1]; NADPH varied, NADPH detection (340 nm)): 27 ± 2 s⁻¹ | kcat (NAD(P)H) ([1]; NADPH varied, O2 detection (oxygraph)): 23 ± 2 s⁻¹ | difference in substrate specificity towards NADPH, PobA and PraI ([1]; average, PraI compared with PobA, different combination of the reactants): ≤ two-fold | Km [4]: 50 µM | kcat (NAD(P)H) ([2]; NADPH detection (340 nm)): 50 ± 5 s⁻¹ | kcat (NAD(P)H) ([2]; O2 detection (oxygraph)): 47 ± 4 s⁻¹ | Km ([3]; read-out: KM^NADPH): 23 µM

O=C(O)c1ccc(O)cc1 [4-hydroxybenzoate]
Km ([1]; read-out: KM (4-hydroxybenzoate), pH 8): 16 ± 1 µM

NC(=O)C1=CN([C@@H]2O[C@H](COP(=O)(O)OP(=O)(O)OC[C@H]3O[C@@H](n4cnc5c(N)ncnc54)[C@H](O)[C@@H]3O)[C@@H](O)[C@H]2O)C=CC1 [NADH]
kcat (NAD(P)H) ([1]; NADH varied, NADH detection (340 nm)): 25 ± 2 s⁻¹ | kcat (NAD(P)H) ([1]; NADH varied, O2 detection (oxygraph)): 22 ± 2 s⁻¹ | substrate specificity for NADH (slightly lowered) ([1]; NADH, relative to NADPH): about 60% | utilization as reducing equivalent ([2]; O2 consumption in mixture containing PobA and 4HB): unreactive
